Experimental data from ChEMBL document CHEMBL5316284, “Structural Determinants of Indole-2-carboxamides: Identification of Lead Acetamides with Pan Antimycobacterial Activity” (J Med Chem, 2023).
In brackets after ≈: the same amount, converted by molar mass.

Key:
Type in all cases: functional
[1] = tested on: Mycobacterium tuberculosis; assay: Antimycobacterial activity against Mycobacterium tuberculosis harbouring mmpL3 L567P mutant gene assessed as inhibition of bacterial growth by visual analysis
[2] = tested on: Mycobacterium tuberculosis; assay: Antimycobacterial activity against Mycobacterium tuberculosis harbouring mmpL3 G253E mutant gene assessed as inhibition of bacterial growth by visual analysis
[3] = tested on: Mycobacterium tuberculosis; assay: Antimycobacterial activity against Mycobacterium tuberculosis harbouring mmpL3 S288T mutant gene assessed as inhibition of bacterial growth by visual analysis
[4] = tested on: Mycobacterium tuberculosis; assay: Antimycobacterial activity against Mycobacterium tuberculosis harbouring wild-type mmpL3 gene assessed as inhibition of bacterial growth by visual analysis
[5] = tested on: Mycobacterium tuberculosis; assay: Antimycobacterial activity against Mycobacterium tuberculosis harbouring mmpL3 S309C mutant gene assessed as inhibition of bacterial growth by visual analysis
[6] = tested on: Mycobacterium tuberculosis; assay: Antimycobacterial activity against Mycobacterium tuberculosis harbouring mmpL3 F644C mutant gene assessed as inhibition of bacterial growth by visual analysis
[7] = tested on: Mycobacterium tuberculosis; assay: Antimycobacterial activity against Mycobacterium tuberculosis harbouring mmpL3 V684G mutant gene assessed as inhibition of bacterial growth by visual analysis
[8] = tested on: Mycobacterium tuberculosis; assay: Antimycobacterial activity against Mycobacterium tuberculosis harbouring mmpL3 L189R mutant gene assessed as inhibition of bacterial growth by visual analysis
[9] = tested on: Mycobacterium tuberculosis; assay: Antimycobacterial activity against Mycobacterium tuberculosis harbouring mmpL3 S591l mutant gene assessed as inhibition of bacterial growth by visual analysis
[10] = tested on: Mycobacterium tuberculosis; assay: Antimycobacterial activity against Mycobacterium tuberculosis harbouring mmpL3 V684A mutant gene assessed as inhibition of bacterial growth by visual analysis

For `CC[C@H]1OC(=O)[C@H](C)[C@@H](O[C@H]2C[C@@](C)(OC)[C@@H](O)[C@H](C)O2)[C@H](C)[C@@H](O[C@@H]2O[C@H](C)C[C@H](N(C)C)[C@H]2O)[C@](C)(OC)C[C@@H](C)C(=O)[C@H](C)[C@@H](O)[C@]1(C)O` [CLARITHROMYCIN], the MIC [1] was 0.5 µg/mL (≈ 0.668 µM), the MIC [2] was 0.5 µg/mL (≈ 0.668 µM) and the MIC [3] was 0.5 µg/mL (≈ 0.668 µM). The MIC [4] was 0.5 µg/mL (≈ 0.668 µM), the MIC [5] was 0.5 µg/mL (≈ 0.668 µM) and the MIC [6] was 0.5 µg/mL (≈ 0.668 µM). It also gave an MIC [7] of 0.5 µg/mL (≈ 0.668 µM), an MIC [8] of 0.5 µg/mL (≈ 0.668 µM) and an MIC [9] of 0.5 µg/mL (≈ 0.668 µM).

In the case of `C[C@@H]1[C@H]2C[C@@H](C[C@H]1NC(=O)CNc1cccc(Cl)c1)C2(C)C`, the MIC [1] is reported as 2 µg/mL (≈ 6.23 µM), the MIC [2] is reported as 4 µg/mL (≈ 12.5 µM) and the MIC [3] is reported as 16 µg/mL (≈ 49.9 µM). The MIC [4] was 1 µg/mL (≈ 3.12 µM), the MIC [5] was 8 µg/mL (≈ 24.9 µM) and the MIC [10] was 2 µg/mL (≈ 6.23 µM). It also gave an MIC [6] of 4 µg/mL (≈ 12.5 µM), an MIC [7] of 2 µg/mL (≈ 6.23 µM) and an MIC [8] of 4 µg/mL (≈ 12.5 µM). For the same compound, the MIC [9] was 4 µg/mL (≈ 12.5 µM).

With `O=C(CNc1cccc(OC(F)(F)F)c1)NC12CC3CC(CC(C3)C1)C2` the MIC [1] was 2 µg/mL (≈ 5.43 µM), the MIC [2] was 4 µg/mL (≈ 10.9 µM) and the MIC [3] was 8 µg/mL (≈ 21.7 µM). It also gave an MIC [4] of 0.5 µg/mL (≈ 1.36 µM), an MIC [5] of 4 µg/mL (≈ 10.9 µM) and an MIC [10] of 1 µg/mL (≈ 2.71 µM). It also gave an MIC [7] of 0.5 µg/mL (≈ 1.36 µM), an MIC [8] of 2 µg/mL (≈ 5.43 µM) and an MIC [9] of 4 µg/mL (≈ 10.9 µM).
